ChEMBL document CHEMBL1139163, “Discovery and initial SAR of 3-(1H-benzo[d]imidazol-2-yl)pyridin-2(1H)-ones as inhibitors of insulin-like growth factor 1-receptor (IGF-1R)” (Bioorg Med Chem Lett, 2007)
pIC50: −log10 of the molar value.

How the values were obtained:
[1] = biological target: Insulin-like growth factor 1 receptor (Homo sapiens, UniProt P08069); assay: Inhibition of human recombinant IGF1 receptor
HT-29 = assay: Cytotoxicity against HT29 cells by MTT assay; assay type: functional, Homo sapiens

Sequence of Insulin-like growth factor 1 receptor (P08069 31-736 limits assumed): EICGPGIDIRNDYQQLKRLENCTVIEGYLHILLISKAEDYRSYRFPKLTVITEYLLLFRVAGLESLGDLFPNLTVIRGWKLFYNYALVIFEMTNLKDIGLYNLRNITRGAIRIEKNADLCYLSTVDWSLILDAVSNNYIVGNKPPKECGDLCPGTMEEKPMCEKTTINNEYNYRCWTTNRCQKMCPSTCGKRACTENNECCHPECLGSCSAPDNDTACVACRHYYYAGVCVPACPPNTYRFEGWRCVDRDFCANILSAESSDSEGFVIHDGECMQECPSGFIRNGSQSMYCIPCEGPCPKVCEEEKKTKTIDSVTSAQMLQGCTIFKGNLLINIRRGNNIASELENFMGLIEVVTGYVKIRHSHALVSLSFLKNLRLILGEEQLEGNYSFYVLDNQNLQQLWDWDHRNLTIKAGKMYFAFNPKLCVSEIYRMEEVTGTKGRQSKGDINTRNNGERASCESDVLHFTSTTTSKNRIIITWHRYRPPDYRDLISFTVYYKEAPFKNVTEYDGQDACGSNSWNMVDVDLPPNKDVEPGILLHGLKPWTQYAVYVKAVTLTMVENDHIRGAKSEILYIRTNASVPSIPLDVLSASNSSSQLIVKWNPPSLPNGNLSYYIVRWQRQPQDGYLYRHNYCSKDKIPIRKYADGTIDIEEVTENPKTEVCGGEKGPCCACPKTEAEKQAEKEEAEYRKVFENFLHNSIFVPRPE
Sequence of Insulin-like growth factor 1 receptor (P08069 741-1367 limits assumed): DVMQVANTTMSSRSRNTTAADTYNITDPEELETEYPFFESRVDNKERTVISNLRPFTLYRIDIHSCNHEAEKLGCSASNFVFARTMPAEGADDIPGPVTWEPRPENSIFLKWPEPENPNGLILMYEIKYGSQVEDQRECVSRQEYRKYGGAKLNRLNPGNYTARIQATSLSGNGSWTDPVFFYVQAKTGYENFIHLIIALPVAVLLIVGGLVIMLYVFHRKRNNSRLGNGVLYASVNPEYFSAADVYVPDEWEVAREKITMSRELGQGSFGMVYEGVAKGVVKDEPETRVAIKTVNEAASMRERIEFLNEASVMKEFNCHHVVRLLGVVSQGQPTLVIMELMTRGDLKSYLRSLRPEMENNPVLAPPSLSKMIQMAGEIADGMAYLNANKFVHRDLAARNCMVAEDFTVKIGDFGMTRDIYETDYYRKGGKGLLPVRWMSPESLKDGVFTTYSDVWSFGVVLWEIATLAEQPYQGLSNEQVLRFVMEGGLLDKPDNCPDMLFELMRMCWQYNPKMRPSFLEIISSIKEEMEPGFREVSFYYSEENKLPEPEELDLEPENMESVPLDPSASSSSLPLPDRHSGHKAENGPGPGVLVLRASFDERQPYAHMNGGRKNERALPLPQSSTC

| pIC50 [1] | SMILES | Activity (HT-29) |
| --- | --- | --- |
| < 4.60 | O=c1[nH]cccc1-c1nc2c(CNCc3ccccc3)cc(-n3ccnc3)cc2[nH]1 | – |
| 5.48 | Cc1cc(-n2ccnc2)cc2[nH]c(-c3c(N[C@H](CO)Cc4cccc([N+](=O)[O-])c4)cc[nH]c3=O)nc12 | – |
| < 4.60 | CNCc1cc(-n2ccnc2)cc2nc(-c3ccc[nH]c3=O)[nH]c12 | – |
| 5.51 | COc1ccc(C[C@@H](CO)Nc2cc[nH]c(=O)c2-c2nc3c(C)cc(-n4ccnc4)cc3[nH]2)cc1 | – |
| 5.46 | Cc1cc(-n2ccnc2)cc2[nH]c(-c3c(N[C@H](CO)Cc4cccc(C(F)(F)F)c4)cc[nH]c3=O)nc12 | – |
| 4.89 | CCN(Cc1cc(-n2ccnc2)cc2[nH]c(-c3ccc[nH]c3=O)nc12)c1ncc[nH]1 | – |
| < 4.60 | Cc1cc(-n2ccnc2)cc2[nH]c(-c3c(NCc4ccncc4)cc[nH]c3=O)nc12 | – |
| < 4.60 | CN(Cc1cc(-n2ccnc2)cc2[nH]c(-c3ccc[nH]c3=O)nc12)c1ccccc1 | – |
| < 4.60 | O=c1[nH]cccc1-c1nc2c(CN3CCNCC3)cc(-n3ccnc3)cc2[nH]1 | – |
| < 4.60 | Cc1cc(-n2ccnc2)cc2[nH]c(-c3c(SCc4ccccn4)cc[nH]c3=O)nc12 | – |
| 6.18 | COc1cccc(C[C@@H](CO)Nc2cc[nH]c(=O)c2-c2nc3c(C)cc(-n4ccnc4)cc3[nH]2)c1 | 1.6 µM |
| 5.68 | Cc1cc(-n2ccnc2)cc2[nH]c(-c3c(NCCc4cccs4)cc[nH]c3=O)nc12 | – |
| 6.24 | COc1ccccc1C[C@@H](CO)Nc1cc[nH]c(=O)c1-c1nc2c(C)cc(-n3ccnc3)cc2[nH]1 | 1.2 µM |
| 6.14 | Cc1cc(-n2ccnc2)cc2[nH]c(-c3c(N[C@H](CO)Cc4cccc(Cl)c4)cc[nH]c3=O)nc12 | 1.1 µM |

Second part, the compound before the results:

| SMILES | pIC50 [1] | Activity (HT-29) |
| --- | --- | --- |
| Cc1cc(-n2ccnc2)cc2[nH]c(-c3c(N[C@H](CO)Cc4ccc(OC(C)(C)C)cc4)cc[nH]c3=O)nc12 | 5.77 | – |
| Cc1cc(-n2ccnc2)cc2[nH]c(-c3c(N[C@H](CO)Cc4ccc(Cl)cc4)cc[nH]c3=O)nc12 | 5.27 | – |
| Cc1cc(-n2ccnc2)cc2[nH]c(-c3c(OCc4ccccn4)cc[nH]c3=O)nc12 | < 4.60 | – |
| Cc1cc(-n2ccnc2)cc2[nH]c(-c3c(NCc4cccs4)cc[nH]c3=O)nc12 | 5.28 | – |
| Cc1cc(-n2ccnc2)cc2nc(-c3c(NCc4ccco4)cc[nH]c3=O)[nH]c12 | 5.52 | – |
| Cc1cc(-n2ccnc2)cc2[nH]c(-c3c(N[C@H](CO)Cc4cccc(F)c4)cc[nH]c3=O)nc12 | 6.23 | 2.1 µM |
| Cc1cc(-n2ccnc2)cc2[nH]c(-c3c(N[C@H](CO)Cc4ccccc4Cl)cc[nH]c3=O)nc12 | 6.07 | – |
| Cc1cc(-n2ccnc2)cc2[nH]c(-c3c(N[C@H](CO)Cc4ccccc4C#N)cc[nH]c3=O)nc12 | 5.66 | – |
| Cc1cc(-n2ccnc2)cc2nc(-c3c(N[C@H](CO)Cc4ccccn4)cc[nH]c3=O)[nH]c12 | 5.32 | – |
| Cc1cc(-n2ccnc2)cc2[nH]c(-c3c(N[C@H](CO)Cc4ccccc4OC(F)(F)F)cc[nH]c3=O)nc12 | 5.89 | – |
| Cc1cc(-n2ccnc2)cc2[nH]c(-c3c(N[C@H](CO)Cc4ccccc4)cc[nH]c3=O)nc12 | 6.28 | 0.78 µM |
| Cc1ccccc1C[C@@H](CO)Nc1cc[nH]c(=O)c1-c1nc2c(C)cc(-n3ccnc3)cc2[nH]1 | 6.28 | – |
| Cc1cc(-n2ccnc2)cc2[nH]c(-c3c(N[C@H](CO)Cc4cccc(Br)c4)cc[nH]c3=O)nc12 | 6.23 | 1.3 µM |
| Cc1cc(-n2ccnc2)cc2[nH]c(-c3c(N[C@H](CO)Cc4ccccc4Br)cc[nH]c3=O)nc12 | 6.54 | 0.83 µM |
| Cc1cc(-n2ccnc2)cc2nc(-c3c(NCc4ccccn4)cc[nH]c3=O)[nH]c12 | – | 7.6 µM |
| Cc1cc(-n2ccnc2)cc2nc(-c3c(NCc4cccnc4)cc[nH]c3=O)[nH]c12 | 4.85 | – |
| Cc1cc(-n2ccnc2)cc2[nH]c(-c3c(N[C@H](CO)Cc4ccc(F)cc4)cc[nH]c3=O)nc12 | 5.85 | – |
| O=c1[nH]cccc1-c1nc2cc(-n3ccnc3)cc(CNCc3cccnc3)c2[nH]1 | < 4.60 | – |
| Cc1cc(-n2ccnc2)cc2nc(-c3c(NCCn4nccn4)cc[nH]c3=O)[nH]c12 | 5.60 | – |
| NCc1cc(-n2ccnc2)cc2nc(-c3ccc[nH]c3=O)[nH]c12 | < 4.60 | – |
